Data as given in patent US20060281100A1, “Thiotriphosphate nucleotide dye terminators” (priority 2005, published 2006).

Assay: Spectral measurements: absorbance and emission spectra, Beckman DU7400 spectrophotometer, water media
Format: physicochemical
Procedure: Unless otherwise stated, ultraviolet spectra (UV) were recorded for samples dissolved in MeOH or water contained in a one cm path length quartz cell using a Beckman DU-7400 spectrophotometer.

Abs (H2O), Cyanine Dyes (absorbance maximum of the free cyanine dye in water): 649 nm
Em (H2O) (emission maximum in water, column stands after the cyanine dye columns): 675 nm
Compound: CCN1/C(=C/C=C/C=C/C2=[N+](CCCCCC(=O)O)c3ccc(S(=O)(=O)O)cc3C2(C)C)C(C)(C)c2cc(S(=O)(=O)[O-])ccc21 [Cy5]
